Source: patent publication US8058258B2, “Methods for cancer therapy and stem cell modulation” (Agency for Science, Technology and Research, priority 2006, dated 2011)

Experiments:
[1] = system: MCF-7 cells; assay: Cell death / apoptosis by PI staining and flow cytometry; format: cell-based, human; conditions: 5 μM; for cell death: PI staining and flow cytometry, cell line not named in the sentence (FIG. 3A)
Description: FIG. 3A depicts the detection of cell death of a variety of cancer cells upon exposure to 3-deazaneplanocin (DZNep) compared to untreated controls cells (DMSO=dimethyl sulfoxide). Breast cancer MCF-7 and MB-468 cells, colorectal HCT116, RKO and SW480 cells were treated with 5 μm 3-deazaneplanocin for 48 and 72 h, and cell death was detected by means of propodium iodide (PI) staining and flow cytometry analysis. Shown is the average of three independent experiments.
Cell lines used in these examples were purchased from the American Type Culture Collection (Manassas, Va.). Cells were maintained in DMEM supplemented with 10% fetal bovine serum with glutamine, penicillin, and streptomycin. For drug treatment, cells were seeded the day before the drug treatment. Cells were treated with 5 μM 3-Deazaneplanocin A or 2 μM 5-aza-2′-deoxycytidine (5-AzaC; Sigma) for 72 hours and trichostatin A (TSA; Sigma) at 100 nM for 24 hours. For co-treatment of cells with 5-AzaC and TSA, 5-Aza was added for 48 hours and followed by TSA for 24 hours.
(§1) Cells were trypsinised and washed with PBS and fixed in 70% ethanol and processed for propidium iodide staining and FACS analysis. For the caspase 3 activity assay and mitochondrial membrane potential detection, cells were stained with anti-active caspase 3 and JC-1, respectively, according to the manufacturer's instructions (BD Bioscience).
It was observed that 3-deazaneplanocin at 5 μM could induce 25% cell death at 48 hours and 45% of cell death at 72 hours, as determined by propodium iodide (PI) staining and flow cytometry analysis (FIG. 3A).
To determine whether 3-deazaneplanocin preferentially induces apoptosis in cancer cells, the apoptosis induction between MCF-7 cells and the non-cancerous breast epithelial MCF10A cells was compared for various periods of time. […] In addition, normal primary colon epithelial CC33D cells, like MCF10A cells, were also resistant to 3-deazaneplanocin treatment compared to colorectal cancer HCT116 cell, as evaluated by microscopy examination (FIGS. 3G & 3H).

[2] = system: T47D cells; assay: Apoptotic response time course by FACS analysis; format: cell-based, human; conditions: 5 μM, time course to 120 hours
Description: FIG. 6A depicts an analysis of the breast cancer cell lines MCF-7, MB-468, SK-BR-3, MB-231, T47D and BT549 for an apoptotic effect of 5 μM 3-deazaneplanocin over a time frame of 120 hours. Cell death was measured by FACS analysis. Data presented are the average of three independent experiments.
as §1
To extend the observation seen in MCF-7 cells, additional breast cancer cell lines were screened, including MB-468, SK-BR-3, MB-231, T47D and BT549. […] To identify the PRC2 target genes associated with the cellular sensitivity to 3-deazaneplanocin, the array analysis was performed in these breast cancer cell lines before and after 3-deazaneplanocin treatment and the expression of the 47 identified PRC2 targets profiled. It was reasoned that some the PRC2 target genes might be differentially expressed between the sensitive and resistant cell lines, which might confer the distinct sensitivity to 3-deazaneplanocin. […] Both the real time and conventional RT-PCR analysis of the 4 gene set confirmed the array data (FIGS. 6D & 6E). […]

[3] = system: caspase 9, and poly(ADP-ribose) polymerase (PARP); assay: Western blot of caspase and PARP cleavage; format: cell-based; conditions: 3-deazaneplanocin-treated cells (MCF-7, HCT116; 5 μM, 48 and 72 h)
Description: FIG. 3E depicts a Western blot analysis of the activation of caspases. MCF-7 and HCT16 cells were treated with 5 μM 3-deazaneplanocin (“DZNep”) for 48 and 72 h before analysis of whole-cell extracts. Activation of caspases and poly(ADP-ribose) polymerase (“PARP”) was detected after 3-deazaneplanocin treatment. β-Actin (“Actin”) was used as a loading control.
Cell pellets were first lysed in RadioImmuno Precipitation Assay (RIPA) buffer, consisting of an aqueous solution of 25 mM Tris-HCl pH 7.6, 150 mM NaCl, 1% Nonidet-P 40 (NP-40), 1% sodium deoxycholate and 0.1% sodium dodecylsulfate (SDS), before further sonicated using a tissue homogeniser to release all the proteins. Equal amounts of protein were separated on SDS-polyacrylamide gels and transferred to polyvinylidene difluoride (PVDF) membranes. The blots were probed with antibodies against: EED (07-368), SUZ12 (07-379), SUV39H1 (07-550), BMI1 (05-637), tri-methylated H3-K27 (07-449), tri-methylated H3-K9 (07-442) and Acetyl-Histone H3 (06-599), and were purchased from Upstate. EZH2 (AC22) and Histone H3 (3H1) were from Cell Signaling. Antibodies against DNA methyl-transferases DNMT1 and DNMT3B were purchased from Alexis Biochemicals. […]

[4] = system: PRC2 target genes TGFBI, KRT17, FBXO32, ANXA8, DLX2; assay: Real-time RT-PCR of representative PRC2 targets in MCF-7 cells; format: cell-based, human
Description: I: MCF-7 cells were untreated or treated with 3-deazaneplanocin (DZNep), 5-azacytidine (5-AzaC) or a combination of 5-azacytidine and trichostatin A (AZA+TSA), and RNA was isolated for gene expression analysis.
Total RNA was isolated from cell lines using Trizol (Invitrogen) and was converted to cDNA using an RNA Amplification kit (Ambion). […] Quantitative real-time PCR was performed on a PRISM 7900 sequenced detector (Applied Biosystems) using TaqMan probes (Applied Biosystems). Samples were normalized to the levels of 18S ribosomal RNA.
The array results were further confirmed by real-time RT-PCR for representative PRC2 targets.

For `Nc1nccc2c1ncn2C1C=C(CO)C(O)C1O` (stereo not shown) [3-deazaneplanocin, 5-(4-amino-1H-imidazo[4,5-c]pyridin-1-yl)-3-(hydroxymethyl)-3-cyclopentene-1,2-diol], the cell death ([1]; 48 hours) was 25%, the cell death ([1]; 72 hours) was 45% and the “apoptosis induction over various periods of time” value ([1]; MCF-7 cells, FACS) was “progressive and marked apoptosis”. For the same compound, the “sensitivity to 3-deazaneplanocin-induced cell death” value [2] was “highly susceptible”, the “cleavage of caspase 9, and poly(ADP-ribose) polymerase (PARP)” value [3] was “easily detectable” and the “expression of ANXA8 and DLX2 (real-time RT-PCR)” value [4] was “activated”. The “induction of TGFBI, KRT17 and FBX032 (real-time RT-PCR)” value [4] was “only induced”.
